Active and inactive are the calls of the source. The calls are words filed in the database; no cut-off is given here.
Experiments:
MOLM-14 [1] = experiment: Potentiation of EPZ5676-induced antileukemic activity against human MOLM-14 cells at 4.3 uM in presence of bone-marrow derived stromal cell-conditioned medium; assay type: functional, cell-based
U-937 [2] = experiment: Potentiation of gileritinib-induced antileukemic activity against human U-937 cells at 4.3 uM in presence of bone-marrow derived stromal cell-conditioned medium; assay type: functional, cell-based
MOLM-14 [3] = experiment: Potentiation of lapatinib-induced antileukemic activity against human MOLM-14 cells at 4.3 uM in presence of bone-marrow derived stromal cell-conditioned medium; assay type: functional, cell-based
CCRF-CEM [4] = experiment: Potentiation of vorinostat-induced antileukemic activity against human CCRF-CEM cells at 4.3 uM in presence of bone-marrow derived stromal cell-conditioned medium; assay type: functional, cell-based
U-937 [5] = experiment: Potentiation of birinapant-induced antileukemic activity against human U-937 cells at 4.3 uM in presence of bone-marrow derived stromal cell-conditioned medium; assay type: functional, cell-based
U-937 [6] = experiment: Potentiation of -mastinib -induced antileukemic activity against human U-937 cells at 4.3 uM in presence of bone-marrow derived stromal cell-conditioned medium; assay type: functional, cell-based
MOLM-14 [7] = experiment: Potentiation of prima1-induced antileukemic activity against human MOLM-14 cells at 4.3 uM in presence of bone-marrow derived stromal cell-conditioned medium; assay type: functional, cell-based
CCRF-CEM [8] = experiment: Potentiation of clofarabine-induced antileukemic activity against human CCRF-CEM cells at 4.3 uM in presence of bone-marrow derived stromal cell-conditioned medium; assay type: functional, cell-based
CCRF-CEM [9] = experiment: Potentiation of AG-221-induced antileukemic activity against human CCRF-CEM cells at 4.3 uM in presence of bone-marrow derived stromal cell-conditioned medium; assay type: functional, cell-based
CCRF-CEM [10] = experiment: Potentiation of decitabine-induced antileukemic activity against human CCRF-CEM cells at 4.3 uM in presence of bone-marrow derived stromal cell-conditioned medium; assay type: functional, cell-based
[11] = target: Chromatin remodeling regulator CECR2 (Homo sapiens) (UniProt Q9BXF3); experiment: Binding affinity to partial length human CECR2 (P423 to D543 residues) expressed in bacterial system at 1 uM by BROMOscan method relative to control
Chromatin remodeling regulator CECR2 (Homo sapiens), sequence (Q9BXF3 whole entry, looked up, the tested form may be a part): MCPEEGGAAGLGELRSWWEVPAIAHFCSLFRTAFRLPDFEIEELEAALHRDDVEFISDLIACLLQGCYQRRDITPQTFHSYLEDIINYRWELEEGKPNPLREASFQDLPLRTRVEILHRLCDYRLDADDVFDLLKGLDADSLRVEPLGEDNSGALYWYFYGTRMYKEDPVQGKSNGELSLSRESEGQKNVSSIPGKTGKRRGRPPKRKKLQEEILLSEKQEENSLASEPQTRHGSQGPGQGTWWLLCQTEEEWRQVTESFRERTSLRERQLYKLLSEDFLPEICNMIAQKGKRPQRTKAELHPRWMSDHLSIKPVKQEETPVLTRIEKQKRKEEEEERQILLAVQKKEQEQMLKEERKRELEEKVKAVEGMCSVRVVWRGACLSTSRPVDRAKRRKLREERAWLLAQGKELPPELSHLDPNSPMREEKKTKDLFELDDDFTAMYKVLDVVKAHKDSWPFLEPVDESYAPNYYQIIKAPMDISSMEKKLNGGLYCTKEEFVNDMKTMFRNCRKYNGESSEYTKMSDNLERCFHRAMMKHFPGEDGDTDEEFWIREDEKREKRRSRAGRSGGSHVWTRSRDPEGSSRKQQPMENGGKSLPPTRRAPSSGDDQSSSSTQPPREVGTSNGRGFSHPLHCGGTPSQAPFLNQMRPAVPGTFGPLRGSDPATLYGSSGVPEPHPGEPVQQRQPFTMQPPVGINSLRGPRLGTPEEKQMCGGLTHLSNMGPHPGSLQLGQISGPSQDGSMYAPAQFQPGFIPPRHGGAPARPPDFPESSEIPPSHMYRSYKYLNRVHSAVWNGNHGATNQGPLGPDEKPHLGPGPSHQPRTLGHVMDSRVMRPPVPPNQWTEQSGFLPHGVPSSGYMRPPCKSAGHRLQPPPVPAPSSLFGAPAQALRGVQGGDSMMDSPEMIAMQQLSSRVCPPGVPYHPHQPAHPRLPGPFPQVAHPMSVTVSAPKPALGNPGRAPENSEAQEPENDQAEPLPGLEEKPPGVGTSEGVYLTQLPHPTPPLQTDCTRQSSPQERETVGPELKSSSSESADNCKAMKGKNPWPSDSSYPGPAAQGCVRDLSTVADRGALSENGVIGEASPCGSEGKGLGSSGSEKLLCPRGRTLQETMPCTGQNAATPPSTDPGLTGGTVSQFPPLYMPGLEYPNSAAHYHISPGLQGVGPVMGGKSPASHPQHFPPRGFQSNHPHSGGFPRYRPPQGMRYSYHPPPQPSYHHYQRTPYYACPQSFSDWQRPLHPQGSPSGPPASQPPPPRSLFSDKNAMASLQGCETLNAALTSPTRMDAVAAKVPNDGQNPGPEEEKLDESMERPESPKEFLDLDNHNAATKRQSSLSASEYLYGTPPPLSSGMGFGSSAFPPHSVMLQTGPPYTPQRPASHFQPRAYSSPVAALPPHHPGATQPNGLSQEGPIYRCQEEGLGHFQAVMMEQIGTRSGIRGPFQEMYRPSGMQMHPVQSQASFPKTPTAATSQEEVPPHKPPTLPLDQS

MOLM-14 [12] = experiment: Potentiation of trametinib-induced antileukemic activity against human MOLM-14 cells at 4.3 uM in presence of bone-marrow derived stromal cell-conditioned medium; assay type: functional, cell-based
CCRF-CEM [13] = experiment: Potentiation of alisertib-induced antileukemic activity against human CCRF-CEM cells at 4.3 uM in presence of bone-marrow derived stromal cell-conditioned medium; assay type: functional, cell-based
CCRF-CEM [14] = experiment: Potentiation of seliciclib-induced antileukemic activity against human CCRF-CEM cells at 4.3 uM in presence of bone-marrow derived stromal cell-conditioned medium; assay type: functional, cell-based
MOLM-14 [15] = experiment: Potentiation of dexamethasone-induced antileukemic activity against human MOLM-14 cells at 4.3 uM in presence of bone-marrow derived stromal cell-conditioned medium; assay type: functional, cell-based
U-937 [16] = experiment: Potentiation of navitoclax-induced antileukemic activity against human U-937 cells at 4.3 uM in presence of bone-marrow derived stromal cell-conditioned medium; assay type: functional, cell-based
MOLM-14 [17] = experiment: Potentiation of azacitidine-induced antileukemic activity against human MOLM-14 cells at 4.3 uM in presence of bone-marrow derived stromal cell-conditioned medium; assay type: functional, cell-based
CCRF-CEM [18] = experiment: Potentiation of entinostat-induced antileukemic activity against human CCRF-CEM cells at 4.3 uM in presence of bone-marrow derived stromal cell-conditioned medium; assay type: functional, cell-based
MOLM-14 [19] = experiment: Potentiation of imatinib-induced antileukemic activity against human MOLM-14 cells at 4.3 uM in presence of bone-marrow derived stromal cell-conditioned medium; assay type: functional, cell-based
MOLM-14 [20] = experiment: Potentiation of navitoclax-induced antileukemic activity against human MOLM-14 cells at 4.3 uM in presence of bone-marrow derived stromal cell-conditioned medium; assay type: functional, cell-based
CCRF-CEM [21] = experiment: Potentiation of idasanutlin-induced antileukemic activity against human CCRF-CEM cells at 4.3 uM in presence of bone-marrow derived stromal cell-conditioned medium; assay type: functional, cell-based
MOLM-14 [22] = experiment: Potentiation of midostaurin-induced antileukemic activity against human MOLM-14 cells at 4.3 uM in presence of bone-marrow derived stromal cell-conditioned medium; assay type: functional, cell-based
U-937 [23] = experiment: Potentiation of etoposide-induced antileukemic activity against human U-937 cells at 4.3 uM in presence of bone-marrow derived stromal cell-conditioned medium; assay type: functional, cell-based
MOLM-14 [24] = experiment: Potentiation of entinostat-induced antileukemic activity against human MOLM-14 cells at 4.3 uM in presence of bone-marrow derived stromal cell-conditioned medium; assay type: functional, cell-based
[25] = target: T1, E3 ubiquitin-protein ligase TRIM33 (Homo sapiens) (UniProt Q9UPN9); experiment: Binding affinity to partial length human TRIM33 (D882 to A1087 residues) expressed in bacterial system at 1 uM by BROMOscan method relative to control
T1 sequence (whole entry): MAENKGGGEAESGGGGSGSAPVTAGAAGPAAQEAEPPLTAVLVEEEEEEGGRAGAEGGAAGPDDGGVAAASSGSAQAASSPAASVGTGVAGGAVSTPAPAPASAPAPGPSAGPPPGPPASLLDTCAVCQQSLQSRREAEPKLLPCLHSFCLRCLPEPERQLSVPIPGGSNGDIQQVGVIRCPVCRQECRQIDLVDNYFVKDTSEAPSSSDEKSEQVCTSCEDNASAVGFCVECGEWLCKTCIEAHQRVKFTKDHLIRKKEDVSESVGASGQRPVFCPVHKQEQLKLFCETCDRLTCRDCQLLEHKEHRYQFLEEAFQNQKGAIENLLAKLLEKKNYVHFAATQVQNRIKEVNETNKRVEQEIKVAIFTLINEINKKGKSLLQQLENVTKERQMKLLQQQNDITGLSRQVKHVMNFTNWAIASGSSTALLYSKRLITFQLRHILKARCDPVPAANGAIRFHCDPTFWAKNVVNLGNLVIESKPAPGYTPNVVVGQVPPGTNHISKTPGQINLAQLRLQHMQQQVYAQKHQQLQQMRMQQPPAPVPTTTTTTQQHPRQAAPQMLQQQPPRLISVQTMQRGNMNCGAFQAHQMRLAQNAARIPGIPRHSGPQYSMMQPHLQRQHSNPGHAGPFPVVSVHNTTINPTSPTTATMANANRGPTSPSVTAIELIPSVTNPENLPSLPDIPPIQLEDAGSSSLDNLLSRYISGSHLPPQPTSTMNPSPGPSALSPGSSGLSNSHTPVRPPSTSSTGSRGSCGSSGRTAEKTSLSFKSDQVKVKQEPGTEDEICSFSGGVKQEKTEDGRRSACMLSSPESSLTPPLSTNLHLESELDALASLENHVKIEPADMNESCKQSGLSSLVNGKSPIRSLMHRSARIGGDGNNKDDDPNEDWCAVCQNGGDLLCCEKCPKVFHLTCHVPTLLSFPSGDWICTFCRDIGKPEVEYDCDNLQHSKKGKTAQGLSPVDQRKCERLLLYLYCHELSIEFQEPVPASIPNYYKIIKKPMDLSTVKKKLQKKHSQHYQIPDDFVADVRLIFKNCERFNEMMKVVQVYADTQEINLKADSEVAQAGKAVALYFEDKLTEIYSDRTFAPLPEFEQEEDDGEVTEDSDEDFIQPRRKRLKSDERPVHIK

MOLM-14 [26] = experiment: Potentiation of asparaginase-induced antileukemic activity against human MOLM-14 cells at 4.3 uM in presence of bone-marrow derived stromal cell-conditioned medium; assay type: functional, cell-based

Activity [11]: 54%
Activity [25]: 52%
SMILES: CC(=O)N1CCc2c(sc3nc(SCC(=O)Nc4cccnc4C)n(Cc4ccco4)c(=O)c23)C1
Activity (MOLM-14 [1]): inactive
Activity (U-937 [2]): inactive
Activity (MOLM-14 [3]): inactive
Activity (CCRF-CEM [4]): inactive
Activity (U-937 [5]): inactive
Activity (U-937 [6]): inactive
Activity (MOLM-14 [7]): inactive
Activity (CCRF-CEM [8]): inactive
Activity (CCRF-CEM [9]): inactive
Activity (CCRF-CEM [10]): inactive
Activity (MOLM-14 [12]): inactive
Activity (CCRF-CEM [13]): inactive
Activity (CCRF-CEM [14]): inactive
Activity (MOLM-14 [15]): inactive
Activity (U-937 [16]): inactive
Activity (MOLM-14 [17]): inactive
Activity (CCRF-CEM [18]): inactive
Activity (MOLM-14 [19]): inactive
Activity (MOLM-14 [20]): inactive
Activity (CCRF-CEM [21]): inactive
Activity (MOLM-14 [22]): inactive
Activity (U-937 [23]): inactive
Activity (MOLM-14 [24]): inactive
Activity (MOLM-14 [26]): inactive
